Laboratory results reported in patent US20210128537A1, “T-TYPE CALCIUM CHANNEL MODULATORS AND METHODS OF USE THEREOF” (Praxis Precision Medicines, inc., priority 2016, published 2021).

Legend:
GAERS nRT neuron = assay: Thalamic slice current-clamp recordings, burst firing in nRT neurons; type: cell-based, rat; conditions: 1 mM Z944; for voltage response to depolarizing current, low threshold spiking: in 600 nM TTX
hCaV3.2 = hCaV3.2 (Homo sapiens, UniProt O95180); assay: Inactivated channel state FLIPR assay, concentration-dependent inhibition of hCaV3.2; type: cell-based; conditions: logistic function fit
Naïve wistar rats = assay: Drug tolerability study, seven-day osmotic pump; type: in vivo, rat
Description: (§1) Pumps were filled with either Z944 to deliver a daily dose of 60 mg/kg, levetiracetam to deliver a daily dose of 200 mg/kg or vehicle. For the drug tolerability study, osmotic pumps continuously either Z944, levetiracetam or vehicle for 7 days and for the post-SE study osmotic pumps delivered continuously the different treatments for 28 days.
The neurological side effects of the prolonged administration of Z944 and levetiracetam were assessed over one-week. Naïve wistar rats aged 11 weeks were implanted with a seven-day osmotic pump with Z944 (60 mg/kg/day, n=6), levetiracetam (200 mg/kg/day, n=5) and vehicle (n=6). The animals were evaluated twice per day, morning and afternoon, for side effects from the day of pump implantation to 8 days after.

post-SE rats = assay: Kainic acid induced post-status epilepticus model, video-EEG seizure analysis; type: in vivo, rat
Description: as §1
FIG. 11 summarizes the different methods used on this experimental paradigm.
Animals were implanted with subdural EEG recording electrodes and one week after surgery, the animals were connected using cables that allowed them free movement around their cage. A repeated low dose KA administration protocol was used. Rats were injected i.p. with an initial dose of KA 7.5 mg/kg plus 3 ml of normal saline to prevent dehydration. Animals were monitored for 45 minutes for EEG and behavioural seizures based on the Racine scale. […] This was repeated up to 2 times every 45 minutes. An animal was eliminated from the experiment if it didn't show a stable self-sustained SE after a maximum KA total dose of 15 mg/kg. Two sham groups were treated identically but received saline injections instead of KA. After four hours of sustained electroencephalographic and behavioural seizures the animals were randomly allocated to one of the five treatment groups: sham+vehicle (n=6), sham+Z944 (n=6), post-SE+vehicle (n=8), post-SE+Z944 (n=8), post-SE+levetiracetam (n=9).
Animals were anesthetized and implanted with subcutaneous osmotic pumps containing either vehicle Z944 (60 mg/kg/day), or levetiracetam (200 mg/kg/day) that delivered the treatment continuously for 4 weeks. Immediately after the pump implantation, SE was stopped with diazepam (5 mg/kg/dose).
vEEG recordings commenced at least 4 h prior the induction of SE to provide baseline recordings. The video-EEG recordings continued for the whole duration of the treatment period, i.e. four weeks after the termination of the SE. […] EEG analysis was performed in a blinded manner and confirmed by two different observers. All EEG recordings were visually and manually annotated using Profusion 3 software. A seizure was defined as an episode of rhythmic spiking activity that was three times the baseline amplitude and a frequency >5 Hz that lasted at least 10 s. The end of a seizure was determined as the last spike. The average number of seizures per day, average seizure duration and seizure class (severity) were analysed.

fully kindled rats = assay: Amygdala kindling model, anti-seizure testing in fully kindled rats; type: in vivo, rat
Description: Animals were implanted with EEG recording electrodes and with a stimulating bipolar electrode in the left basolateral amygdaloid nucleus using the coordinates AP±3.0 mm, ML±5.9 mm, DV±6.0 mm. The after discharge threshold (ADT) for each animal was determined by administering a stimulation (frequency=60.1 Hz; duration=1000 μs) at one minute intervals until a seizure was clicited. The amplitude of the stimulation was started at 0.02 mA with increments of 0.02 mA; the stimulations were stopped when the animal experienced a seizure of ≥6 second duration, or if the amplitude of 0.40 mA was reached without the occurrence of a seizure. […] Kindling was performed twice a day for five days per week with an endpoint of 30 stimulations or until the animal presented five class V seizures (referred to as fully kindled). The seizure severity was classified from 0 (less severe) to V (most severe) according to the Racine Scale (Racine, 1972b). Sham kindled animals were handled the same way as the kindled animals, although no electrical stimulation was applied. An animal is classified as fully kindled once it has experienced 5 class V seizures.
Drug testing was performed twice a week until all animals had received each of the seven treatments, Z944 (5 mg/kg, 10 mg/kg, 30 mg/kg and 100 mg/kg), vehicle (10% DMSO/90% Na^+-CMC or CBZ vehicle 20% DMSO/40% propylene glycol/40% saline), ETX (100 mg/kg) or CBZ (30 mg/kg). Prior to drug testing each day, animals were subjected to a maximum of three pre-drug stimulations 30 minutes apart. The animals qualified for testing on that particular day if a class IV or V seizure was elicited in at least 2 out of 3 pre-drug stimulations. Stimulations consisted of a 1 second train of 1 ms biphasic square wave pulses at a frequency of 60 Hz with current amplitude based on each animal ADT that elicited a seizure. Thirty minutes after the last pre-drug stimulation, the animals received an IP injection of one of the seven treatments in a randomized manner at a dose volume of 5 ml/kg. Six post-drug stimulations were administered to each animal, the first stimulation was given 15 minutes post drug injection (to allow brain penetration of the drugs) and the following five stimulations were delivered in 30 minutes intervals thereafter with the seizure class elicited being recorded after each post-drug stimulation. The duration of the primary and total seizures, if any, were recorded. An investigator blinded to the drug treatment analyzed all EEG recordings. Primary after discharge is the duration of the seizure elicited from the kindling stimulation. Total after discharge is the total seizure duration including any secondary seizures that occur after the primary after discharge. Primary after discharge duration and total seizure duration were recorded and averaged for the 6 post-drug stimulations.
Animal weight and behaviour when handled were monitored for the duration of the experimental period. Additionally, animals were assessed by observation for any adverse effects of drugs on grooming, fur appearance, gait, and excretion.

Sequence of hCaV3.2 (O95180 whole entry): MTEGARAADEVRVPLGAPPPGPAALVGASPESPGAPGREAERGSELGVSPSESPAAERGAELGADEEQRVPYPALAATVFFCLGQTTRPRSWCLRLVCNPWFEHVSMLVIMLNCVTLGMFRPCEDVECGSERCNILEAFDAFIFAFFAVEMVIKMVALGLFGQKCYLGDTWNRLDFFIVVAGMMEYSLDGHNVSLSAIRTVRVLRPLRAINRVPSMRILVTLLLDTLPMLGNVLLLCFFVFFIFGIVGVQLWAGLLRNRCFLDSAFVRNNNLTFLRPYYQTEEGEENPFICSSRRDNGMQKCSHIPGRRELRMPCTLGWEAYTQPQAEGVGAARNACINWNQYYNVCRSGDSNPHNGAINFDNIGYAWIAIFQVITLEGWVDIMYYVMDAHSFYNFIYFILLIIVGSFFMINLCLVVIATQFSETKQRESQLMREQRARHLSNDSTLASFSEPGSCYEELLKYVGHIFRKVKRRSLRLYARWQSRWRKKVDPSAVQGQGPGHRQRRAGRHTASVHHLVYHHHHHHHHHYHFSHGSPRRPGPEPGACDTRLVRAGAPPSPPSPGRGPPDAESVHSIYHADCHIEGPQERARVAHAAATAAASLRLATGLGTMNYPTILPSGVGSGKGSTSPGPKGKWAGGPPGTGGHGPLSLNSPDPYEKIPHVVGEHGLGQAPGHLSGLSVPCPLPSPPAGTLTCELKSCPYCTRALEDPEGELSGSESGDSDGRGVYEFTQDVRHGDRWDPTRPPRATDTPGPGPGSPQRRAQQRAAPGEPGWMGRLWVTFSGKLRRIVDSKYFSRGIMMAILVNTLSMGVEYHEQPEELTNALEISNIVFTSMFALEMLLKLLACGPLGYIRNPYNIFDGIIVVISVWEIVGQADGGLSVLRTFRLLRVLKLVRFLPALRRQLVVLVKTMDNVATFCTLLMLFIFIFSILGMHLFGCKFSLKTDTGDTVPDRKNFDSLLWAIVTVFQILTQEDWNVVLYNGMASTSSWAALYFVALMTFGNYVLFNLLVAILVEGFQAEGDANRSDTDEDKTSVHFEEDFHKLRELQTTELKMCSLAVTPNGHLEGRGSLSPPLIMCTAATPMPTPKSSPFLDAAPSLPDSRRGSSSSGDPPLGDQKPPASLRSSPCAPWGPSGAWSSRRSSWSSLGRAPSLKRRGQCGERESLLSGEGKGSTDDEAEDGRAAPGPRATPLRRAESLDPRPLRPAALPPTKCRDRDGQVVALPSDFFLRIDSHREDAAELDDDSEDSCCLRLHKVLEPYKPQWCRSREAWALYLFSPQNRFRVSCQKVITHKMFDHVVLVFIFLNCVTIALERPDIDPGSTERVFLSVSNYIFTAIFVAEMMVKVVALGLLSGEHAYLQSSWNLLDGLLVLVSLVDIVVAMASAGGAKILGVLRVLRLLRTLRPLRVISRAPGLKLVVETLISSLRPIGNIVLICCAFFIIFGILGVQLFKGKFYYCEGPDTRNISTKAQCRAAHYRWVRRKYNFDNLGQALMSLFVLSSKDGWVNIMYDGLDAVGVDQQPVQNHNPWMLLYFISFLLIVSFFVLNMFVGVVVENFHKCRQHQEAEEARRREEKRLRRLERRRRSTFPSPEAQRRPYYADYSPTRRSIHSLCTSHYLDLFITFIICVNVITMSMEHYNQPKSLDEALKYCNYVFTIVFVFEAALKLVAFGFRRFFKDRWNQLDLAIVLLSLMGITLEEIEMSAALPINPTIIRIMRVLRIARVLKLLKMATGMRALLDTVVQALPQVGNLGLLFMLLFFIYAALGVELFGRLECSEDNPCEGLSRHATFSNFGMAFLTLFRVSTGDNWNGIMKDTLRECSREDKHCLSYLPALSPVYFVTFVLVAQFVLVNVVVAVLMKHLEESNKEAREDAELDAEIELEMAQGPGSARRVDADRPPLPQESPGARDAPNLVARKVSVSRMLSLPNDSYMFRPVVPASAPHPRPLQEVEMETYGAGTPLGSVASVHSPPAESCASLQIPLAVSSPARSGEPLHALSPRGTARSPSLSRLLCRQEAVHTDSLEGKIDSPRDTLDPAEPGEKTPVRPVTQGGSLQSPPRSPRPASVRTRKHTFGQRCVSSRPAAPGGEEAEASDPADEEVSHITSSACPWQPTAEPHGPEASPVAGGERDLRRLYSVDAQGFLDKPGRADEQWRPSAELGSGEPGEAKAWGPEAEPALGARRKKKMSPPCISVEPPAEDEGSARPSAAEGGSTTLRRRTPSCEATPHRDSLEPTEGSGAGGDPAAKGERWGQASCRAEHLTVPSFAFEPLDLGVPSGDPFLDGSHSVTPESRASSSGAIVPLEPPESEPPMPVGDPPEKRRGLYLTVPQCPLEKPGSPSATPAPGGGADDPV

Q: Which “voltage response to depolarizing current, burst firing” value (GAERS nRT neuron; +80 pA (threshold for burst firing in control)) does the source give for `CC(C)(C)NC(=O)CN1CCC(CNC(=O)c2cc(F)cc(Cl)c2)CC1` [Z944] here?
A: subthreshold for firing

Q: And the “voltage response to depolarizing current, low threshold spiking” value (GAERS nRT neuron; +100 pA)?
A: subthreshold for low-threshold spiking

Q: And the “voltage response to depolarizing current, burst firing” value (GAERS nRT neuron; +120 pA (suprathreshold for burst firing in control))?
A: threshold for tonic firing

Q: And the “voltage response to depolarizing current, low threshold spiking” value (GAERS nRT neuron; +190 pA (suprathreshold in control))?
A: still subthreshold

Q: What about the “slope of the concentration-inhibition curve” value (hCaV3.2) of the same compound?
A: 1.5

Q: What about the “neurological side effects in comparison to vehicle” value (Naïve wistar rats; 60 mg/kg/day osmotic pump, day 2 to day 5) of the same compound?
A: transient and minimal side effects

Q: What about the “neurological side effects compared to levetiracetam treated animals” value (Naïve wistar rats; Z944 60 mg/kg/day vs levetiracetam 200 mg/kg/day, day 2 and 3, p<0.05) of the same compound?
A: significantly reduced neurological side effects

Q: And the “seizures on EEG after drug washout (seizures per day, duration, severity)” value (post-SE rats; 60 mg/kg/day for 4 weeks, EEG after 4 weeks from drug washout)?
A: Anti-Epileptogenic

Q: What about the “seizures on EEG during treatment (seizures per day, duration, severity)” value (post-SE rats; 60 mg/kg/day, during the 4 weeks of continuous treatment after SE) of the same compound?
A: Anti-Epileptogenic Effects

Q: And the “number of seizures in each animal that developed seizures” value (post-SE rats; in two weeks of vEEG after drug washout)?
A: one

Q: What about the “neurological adverse effects after prolonged treatment” value (post-SE rats; osmotic pump 4 weeks, Z944 60 mg/kg/day, levetiracetam 200 mg/kg/day) of the same compound?
A: only transient and minor neurological adverse effects

Q: And the “treated animals that developed seizures” value (post-SE rats; two weeks of vEEG after 4 weeks drug washout, n=8)?
A: two of the eight

Q: And the “seizure class elicited (Racine scale)” value (fully kindled rats; IP, Z944 5, 10, 30, 100 mg/kg, CBZ 30 mg/kg, compared to vehicle)?
A: does not suppress seizures

Q: And the primary after discharge (fully kindled rats; IP, all four doses of Z944, ETX 100 mg/kg, CBZ 30 mg/kg, compared to vehicle (p>0.5))?
A: did not affect the primary after discharge

Q: What about the “adverse effects (sedation scale 0-4) compared to vehicle” value (fully kindled rats; Z944 100 mg/kg, CBZ 30 mg/kg IP, p<0.01) of the same compound?
A: significantly higher adverse effects

Q: And the “adverse effects (sedation scale 0-4), dose dependence” value (fully kindled rats; Z944 5 to 100 mg/kg IP)?
A: dose dependent
